In publication PMC10914731, “Homo-BacPROTAC-induced degradation of ClpC1 as a strategy against drug-resistant mycobacteria” (Nature Communications, 2024):
In brackets after ≈: the same amount, converted by molar mass. Several values for one entry are separate records, joined by “and”; a condition that tells them apart may be missing. Equal entries are not always repeated. Where two headings read alike, the source gives them in different places.

Columns and labels:
[1] = test system: M. tuberculosis H37Rv (ATCC 27294); test: microbe, parasite or virus in culture; assay type: cell-based
[2] = assay type: in vitro ADME, Mice
Procedure, shortened: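 Steps: incubate compound at 1 µmol/l with liver microsomes (0.5 mg/ml) plus 1 mM NADPH in pH 7.5 Tris-HCl buffer containing MgCl2 at 37 °C; stop aliquots over time with acetonitrile; centrifuge and measure remaining compound by LC-MS/MS; fit first-order decay and convert half-life to %Qh.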

Msm 607 = test: microbe, parasite or virus in culture; assay type: cell-based
Caco-2 monolayers = test: in vitro; settings: mean value of P(A−B) and P(B−A)
Procedure, shortened: (§1)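 Values are bidirectional Caco-2 apparent permeabilities, P(A−B) and P(B−A), given in 10^-6 cm s-1. The efflux ratio divides P(B−A) by P(A−B), and intrinsic permeability averages the two directions.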

in vitro = settings: human; for Papp A→B: apical to basolateral
Procedure, shortened: as §1

[3] = assay type: in vitro ADME, Human; settings: clearance in hepatocytes
Mtb # 8673 = test: microbe, parasite or virus in culture; assay type: cell-based
Mtb ATCC 35825 = test: microbe, parasite or virus in culture; assay type: cell-based
Klebsiella pneumoniae = test: MIC ESKAPES panel, Klebsiella pneumoniae; assay type: cell-based; settings: Klebsiella pneumoniae
Description: (§2) Minimum inhibitory concentration (MIC) against ESKAPES panel of Gram positive and Gram negative pathogens (Enterococcus faecium, Staphylococcus aureus, Klebsiella pneumoniae, Acinetobacter baumannii, Pseudomonas aeruginosa, Enterobacter cloacae and Salmonella typhimurium [ESKAPES panel]) were determined at the FNDR by the standard broth dilution method [CLSI, M100]. […] Mueller Hinton broth (MHB) medium was used to grow ESKAPES panel strains. The individual cultures were added as 200 μL (inoculum of 3–7 × 10^5 cfu/ml) to the respective assay plates in each well to all columns, except the media control (200 μL of medium). […] The assay plates were incubated at 37 °C, and the results were noted on the 2nd day as turbidometric readout. The clear wells indicated inhibition of growth, while the turbid wells indicated uninhibited growth.

[4] = test system: Mtb (katG del) ATCC 35822; test: microbe, parasite or virus in culture; assay type: cell-based
Pseudomonas aeruginosa = test: MIC ESKAPES panel, Pseudomonas aeruginosa; assay type: cell-based; settings: Pseudomonas aeruginosa
Description: as §2

Mtb # 11291 = test: microbe, parasite or virus in culture; assay type: cell-based; settings: for MIC: read-out: MIC Mtb # 11291
Mycobacterium abscessus = test: microbe, parasite or virus in culture; assay type: cell-based
Enterococcus faecium = test: MIC ESKAPES panel, Enterococcus faecium; assay type: cell-based; settings: Enterococcus faecium
Description: as §2

[5] = Mycobacterium tuberculosis, mean, n = 2 well replicates
[6] = Mycobacterium tuberculosis, single well replicates
[7] = Gram negative, n = 3 well replicates
[8] = Gram-Negative Bacteria, replicates 1-3

SMILES: CO[C@H](c1ccccc1)[C@@H]1NC(=O)[C@H](C)NC(=O)[C@H](C[C@@H](C)CO)N(C)C(=O)[C@H](Cc2cn(Cc3cn(CCOCCn4cc(Cn5cc(C[C@@H]6NC(=O)[C@H](C(C)C)NC(=O)[C@H](CC(C)C)N(C)C(=O)[C@H](C(C)C)NC(=O)[C@H]([C@H](OC)c7ccccc7)NC(=O)[C@H](C)NC(=O)[C@H](C[C@@H](C)CO)N(C)C6=O)c6ccccc65)nn4)nn3)c3ccccc23)NC(=O)[C@H](C(C)C)NC(=O)[C@H](CC(C)C)N(C)C(=O)[C@H](C(C)C)NC1=O [Compound 6]
- MIC ([1]; Mycobacterium tuberculosis, M. tuberculosis H37Rv strain, read-out: MIC Mtb H37Rv Mean ± SD): 0.4 ± 0.3 µM (≈ 0.815 µg/mL)
- MIC ([1]; Mycobacterium tuberculosis, Mtb H37Rv (Supplementary Table 2), read-out: MIC Mtb): 0.4 ± 0.3 µM (≈ 0.815 µg/mL)
- MIC ([1]; individual measurements (source data), read-out: Mtb MIC): 0.390 µM and 0.780 µM and 0.097 µM and 0.195 µM
- Microsomal Stability Mouse QH ([2]; Mouse): 42.900%
- Microsomal Stability Mice ([2]; clearance in microsomes): 43 %Qh
- MIC (Msm 607; Mycolicibacterium smegmatis, 607, read-out: MIC Msm 607): 2.3 ± 0.9 µM (≈ 4.69 µg/mL)
- Caco-2 Int. Perm (Caco-2 monolayers): 2.1 10-6 cm s-1
- Papp A→B (in vitro; Caco-2, CACO permeability PEAB): < 2.6 ×10⁻⁶ cm/s
- Papp A→B (in vitro; Caco-2, Caco-2 permeability P (A-B)): < 1.7 ×10⁻⁶ cm/s
- Papp B→A (in vitro; Caco-2, Caco-2 permeability P (B-A), basolateral to apical): 2.4 ×10⁻⁶ cm/s
- Hepatocyte Human [3]: 12 %Qh

SMILES: COc1c(N2C[C@@H]3CCCN[C@@H]3C2)c(F)cc2c(=O)c(C(=O)O)cn(C3CC3)c12 [Moxifloxacin, reference compound]
- MIC ([1]; M. tuberculosis H37Rv 27294, single well replicates, read-out: MIC): 0.16 µM (≈ 0.0642 µg/mL)
- MIC ([1]; Mycobacterium tuberculosis, M. tuberculosis H37Rv 27294, single well replicates, read-out: MIC): 0.16 µM (≈ 0.0642 µg/mL)
- MIC ([1]; Mycobacterium tuberculosis, Mtb H37Rv, mean ± SD, n = 3 well replicates, read-out: MIC): 0.2 µM (≈ 0.0803 µg/mL)
- MIC ([1]; Mycobacterium tuberculosis, Set 1, read-out: MIC (Mtb H37Rv) Set 1): 0.07 µM and 0.03 µg/mL
- MIC ([1]; Mycobacterium tuberculosis, Set 2, read-out: MIC (Mtb H37Rv) Set 2): 0.15 µM and 0.06 µg/mL
- MIC ([1]; Mycobacterium tuberculosis, Set 3, done at a different day than Set 1 and Set 2, read-out: MIC (Mtb H37Rv) Set 3): 0.07 µM and 0.03 µg/mL
- MIC ([1]; Mycobacterium tuberculosis, individual example (Supplementary Table 11), read-out: MIC Mtb H37Rv): 0.1 µM and 0.03 µg/mL
- MIC ([1]; Mycobacterium tuberculosis, mean of 3 experiments +/- SD, unit taken from the sets above in the same table, read-out: MIC data (Mtb H37Rv) (+/- SD)): 0.1 µM and 0.04 µg/mL
- MIC (Mtb # 8673; [5]): 0.1 µM and 0.1 µg/mL
- MIC (Mtb # 8673; [6]): 0.15 µM and 0.06 µg/mL
- MIC (Mtb # 8673; single well replicates): 0.15 µM (≈ 0.0602 µg/mL)
- MIC Mtb # 8673 (Mtb # 8673; single well replicates): 0.06 µg/mL (≈ 0.149 µM)
- MIC (Mtb ATCC 35825; Mycobacterium tuberculosis, ATCC35825, mean, n = 2 well replicates): 0.1 µM and 0.1 µg/mL
- MIC (Mtb ATCC 35825; Mycobacterium tuberculosis, ATCC35825, single well replicates): 0.06 µg/mL and 0.15 µM
- MIC (Mtb ATCC 35825; single well replicates): 0.15 µM (≈ 0.0602 µg/mL)
- MIC Mtb ATCC 35825 (Mtb ATCC 35825; single well replicates): 0.06 µg/mL (≈ 0.149 µM)
- MIC (Klebsiella pneumoniae; [7]): 1.3 µM (≈ 0.522 µg/mL)
- MIC (Klebsiella pneumoniae; [8]): 1.25 µM and 0.5 µg/mL
- MIC ([4]; M. tuberculosis ATCC 35822, single well replicates): 0.31 µM (≈ 0.124 µg/mL)
- MIC ([4]; Mycobacterium tuberculosis, ATCC35822, M. tuberculosis ATCC 35822, single well replicates): 0.31 µM (≈ 0.124 µg/mL)
- MIC ([4]; Mycobacterium tuberculosis, ATCC35822, Mtb (katG del) ATCC 35822, mean ± SD, n = 3 well replicates): 0.3 µM (≈ 0.12 µg/mL)
- MIC (Pseudomonas aeruginosa; [7]): 2.5 µM (≈ 1 µg/mL)
- MIC (Pseudomonas aeruginosa; [8]): 2.49 µM and 1 µg/mL
- MIC (Mtb # 11291; [5]): 0.2 µM (≈ 0.0803 µg/mL)
- MIC (Mtb # 11291; [6]): 0.24 µM (≈ 0.0963 µg/mL)
- MIC Mtb # 11291 (Mtb # 11291; single well replicates): 0.10 µg/mL (≈ 0.249 µM)
- MIC (Mtb # 11291; single well replicates): 0.24 µM (≈ 0.0963 µg/mL)
- MIC (Msm 607; Mycolicibacterium smegmatis, 607, read-out: MIC Msm #607, individual example (Supplementary Table 11)): 0.1 µM and 0.1 µg/mL
- MIC (Msm 607; Mycolicibacterium smegmatis, ATCC607, Set-3, done at a different day than Set 1 and Set 2, read-out: MIC (Msm ATCC607) Set-3): 0.15 µM and 0.06 µg/mL
- MIC (Msm 607; Mycolicibacterium smegmatis, ATCC607, mean of 3 experiments ± SD, read-out: MIC including standard deviations (Msm ATCC607)): 0.015 µM and 0.06 µg/mL
- MIC (Msm 607; Mycolicibacterium smegmatis, ATCC607, read-out: MIC (Msm ATCC607) Set-1): 0.15 µM and 0.06 µg/mL
- MIC (Msm 607; Mycolicibacterium smegmatis, ATCC607, read-out: MIC (Msm ATCC607) Set-2): 0.15 µM and 0.06 µg/mL
- MIC (µg/ml) Mycobacterium abscessus (Mycobacterium abscessus; Experiment 2, three replicate columns): 1 µg/mL (≈ 2.49 µM)
- MIC (Mycobacterium abscessus; Experiment 2, three replicate columns, read-out: MIC (µM) Mycobacterium abscessus): 2.49 µM
- MIC (Mycobacterium abscessus; Mycobacteroides abscessus, Experiment 1, read-out: MIC Mycobacterium abscessus): 2.49 µM and 1 µg/mL
- MIC (Mycobacterium abscessus; Mycobacteroides abscessus, Experiment 2, three replicate columns, read-out: MIC (µM) Mycobacterium abscessus): 2.49 µM
- MIC (Mycobacterium abscessus; Mycobacteroides abscessus, Experiment 2, three replicate columns, read-out: MIC (µg/ml) Mycobacterium abscessus): 1 µg/mL
- MIC (Mycobacterium abscessus; Mycobacteroides abscessus, mean ± SD, read-out: MIC Mycobacterium abscessus): 2.5 µM
- MIC (Enterococcus faecium; Gram positive, n = 3 well replicates): 79.7 µM (≈ 32 µg/mL)
- MIC (Enterococcus faecium; Gram-Positive Bacteria, replicates 1-3): 79.7 µM and 32 µg/mL
